Assays:
lung-BMIC line (BT478) = assay: Dose-response assay, PrestoBlue; type: cell-based, human; conditions: Homo sapiens; BT478, 72-h treatment, PrestoBlue; N/A, not applicable; read-out: Lung-BM IC50
Protocol: (§1) For preliminary drug screening, drugs were plated at a concentration of 10 μM in a 96-well plate, in triplicate at a density of 1000 cells/well, and incubated at 37°C with a humidified atmosphere of 5% CO2 for three days. Vehicle controls for cell death are used in each functional experiment. Following treatment, PrestoBlue (20 μL, Invitrogen), a resazurin-based cell viability reagent and fluorescence indicator of cell metabolism, was added to each well to estimate proliferation approximately 2 h prior to measuring fluorescence intensity via FLUOstar Omega Fluorescence 556 Microplate reader (BMG LABTECH) at an excitation and emission wavelength of 540 nm and 590 nm, respectively. Results were analyzed using Omega analysis software.
(§2) Dose-response assays were conducted using the same protocol apart from drugs being plated using 2-fold serial dilutions (20 μM - 39 nM) as previously described.[66] The half maximal inhibitory concentration (IC50) is determined by plotting percent cell viability by the logarithmic concentration of drug. IC80 concentrations will be used for subsequent functional assays (cell proliferation, sphere formation), as determined by the following formula: ICF=100−F/F^1/H×IC50 where F = fraction of maximal response and H = hill slope.

neural stem cells = assay: Dose-response assay, PrestoBlue, normal brain cell control; type: cell-based; conditions: Homo sapiens, 72-h treatment, N/A, not applicable
Excerpt: BM cell lines from primary lung (BT478, BT530), breast (BT923, BT930) and melanoma (BT673, BT917) cancers are derived from primary patient samples with written consent from the patients and approved by the Hamilton Health Sciences McMaster Health Sciences Research Ethics Board (REB #07366), in compliance with Canada’s Tri-Council Policy Statement on the Ethical Conduct for Research Involving Humans and International Ethical guidelines for Biomedical Research Involving Human Subjects. MDA-MB-231 was purchasedfrom American Type Culture Collection and used to generate a brain metastasis derivate following injection into the mammary fat pad and isolation from the brain at human endpoint. Cell lines are maintained in NeuroCult Complete (NCC) media consisting of NeuroCult NS-A Basal Medium (Stemcell technology #05750) and supplemented with 50 mL of NeuroCult Supplement, 20 ng/mL epidermal growth factor (EGF), 10 ng/mL fibroblast growth factor (FGF), 2 μg/mL heparin and 1% penicillin-streptomycin. Human fetal neural stem cells (hNSCs) are derived in-house using a previously described protocol.[62] Normal human astrocytes are purchased from American Type Culture Collection. All cell lines were maintained at 37°C with a humidified atmosphere of 5% CO2.
as §2, with “The” for “Dose-response assays were conducted using the same protocol apart from drugs being plated using 2-fold serial dilutions (20 μM - 39 nM) as previously described.[66] The”

[1] = Brain homogenate binding, equilibrium dialysis; type: in vitro ADME, mouse; conditions: CD-1, mouse, pooled brain homogenate, pH 7.4, 37°C
Protocol: The samples were applied to a dialysis well plate and sealed with dialysis membrane. Dialysis buffer (100 mM sodium phosphate pH 7.4, 150 mM NaCl) was applied to opposite side of the membrane (receiver well of the plate), and samples were incubated at 37°C with 5% CO2 for 4 h. Following completion of incubation period, samples were recovered from each side of the dialysis membrane and processed by protein precipitation, and analysis by LC-MS/MS for compound concentration. A corresponding set of samples was also prepared and stop solution (acetonitrile containing 200 ng/mL tolbutamide and 200 ng/mL labetalol) was immediately added, and samples were obtained from each side of the dialysis plate for mass spectrometric analysis.

MDR1-MDCKII cells = assay: Bi-directional permeability via MDR1-MDCKII cells; type: in vitro ADME
Protocol: (§3) MDR1-MDCKII permeability assays were performed by Wuxi AppTec Co. Briefly, MDR1-MDCK1 cells were seeded onto polycarbonate membranes in 96-well insert system plates and allowed to develop into monolayers. […] The plate was incubated for 2.5 h (37°C, 5% CO2) and the media was sampled on either side and the compound present was quantified by LC-MS/MS and the concentrations were used to calculate the efflux ratio. Digoxin (10 μM), nadolol (2 μM), and metoprolol (2 μM) were used as controls.

MDR1 = assay: Bi-directional permeability via MDR1-MDCKII cells; type: in vitro ADME; conditions: dog, MDCK-MDR1, pH 7.4; 2 μM (digoxin 10 μM), 2.5 h
Protocol: as §3

[2] = test system: patient-derived lung-BMIC line (BT478); assay: Preliminary drug screen of CMap compounds, PrestoBlue viability; type: cell-based, human; conditions: 10 μM, 72 h, PrestoBlue readout
Excerpt: In this work, we aimed to identify potential druggable targets for BM, by characterizing the transcriptomes of pre-metastatic lung-, breast-, and melanoma-BMICs (see Figure 1A).[13]^,[14] We identified 3,951 genes that are commonly differentially expressed in the pre-metastatic cohort of cells compared to BMICs isolated from established patient tumors (Figure 1C).[14] We input the shared gene signature of pre-metastatic BMICs (defined by the commonly shared gene signature from BMICs of all three primary tumor cohorts) as a query signature for computational CMap[17] analysis to identify compounds that evoke opposing transcriptional changes (see Figure 1A). […]
as §1, with “Vehicle controls for cell death are used in each functional experiment.” left out

Compound	IC50 (lung-BMIC line (BT478)) [µM]	Rank of Papp (MDR1-MDCKII cells)	Papp A→B at 2.5 h, 2 μM (MDR1) [nm/s]	IC50 (neural stem cells) [µM]	other results
COc1c(C)c2c(c(O)c1C/C=C(\C)CCC(=O)NCCN1CCCC1)C(=O)OC2 [Compound 6]	24.7	–	–	70.8	–
CC(C)NCC(O)COc1cccc2ccccc12 (stereo not drawn) [Propranolol]	–	–	–	–	fraction unbound at 4 h, 2 μM [1]: 0.023
C[C@H]1O[C@@H](O[C@H]2[C@@H](O)C[C@H](O[C@H]3[C@@H](O)C[C@H](O[C@H]4CC[C@@]5(C)[C@H](CC[C@@H]6[C@@H]5C[C@@H](O)[C@]5(C)[C@@H](C7=CC(=O)OC7)CC[C@]65O)C4)O[C@@H]3C)O[C@@H]2C)C[C@H](O)[C@@H]1O [Digoxin]	–	Low	5.56	–	Papp B→A at 2.5 h, 2 μM (MDR1): 118 nm/s; efflux ratio at 2.5 h, 2 μM (MDR1): 21.2
COc1c(C)c2c(c(O)c1C/C=C(\C)CCC(=O)OCCN1CCOCC1)C(=O)OC2 [MMF (1), Mycophenolate mofetil]	48	–	–	31.2	–
COc1c(C)c2c(c(O)c1C/C=C(\C)CCC(=O)N1CCN(C)CC1)C(=O)OC2 [Compound 4]	–	–	–	493	–
CN1CCc2cccc3c2[C@H]1Cc1ccc(O)c(O)c1-3 [apomorphine]	–	–	–	–	viability of lung-BMICs (BT478) compared to vehicle control [2]: significantly inhibited BMIC viability
COc1c(C)c2c(c(O)c1C/C=C(\C)CCC(=O)NCCCN1CCC1)C(=O)OC2 [Compound 5]	–	–	–	182	–
COc1c(C)c2c(c(O)c1C/C=C(\C)CCC(=O)OCCN1CCN(C(=O)OC(C)(C)C)CC1)C(=O)OC2 [Compound 2]	17.1	–	–	353	–

Further lines, with some results ahead:

IC50 (lung-BMIC line (BT478)) [µM]	Rank of Papp (MDR1-MDCKII cells)	Papp A→B at 2.5 h, 2 μM (MDR1) [nm/s]	Compound	IC50 (neural stem cells) [µM]	other results
–	Low	1.98	CC(C)(C)NCC(O)COc1cccc2c1CC(O)C(O)C2 (stereo not drawn) [Nadolol]	–	–
–	High	295	COCCc1ccc(OCC(O)CNC(C)C)cc1 (stereo not drawn) [Metoprolol]	–	–

From PMC11513854, “De novo GTP synthesis is a metabolic vulnerability for the interception of brain metastases” (Cell Reports Medicine, 2024)
